Results published in patent US6737383B1, “Herbicidal oxadiazolidines” (priority 1999, dated 2004).

What was measured:
[1] = system: surinam grass; test: Test B pre/postemergence surinam grass; format: in vivo, Brachiaria decumbens; details: Preemergence; for B. signalgrass plant response rating: Rate 62 g/ha
Outline: (§1)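 Herbicidal effect was estimated by eye on a ten-point control scale after plants spent twelve to sixteen days in a greenhouse following soil or foliar treatment. Foliar sprays targeted plants at one to four leaves; all doses were formulated in a non-phytotoxic solvent with surfactant.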

[2] = system: soybean; test: Test B pre/postemergence soybean; format: in vivo, Glycine max; details: Preemergence; for Soybean plant response rating: Rate 62 g/ha
Outline: as §1

[3] = system: crabgrass; test: Test B pre/postemergence crabgrass; format: in vivo, Digitaria sanguinalis; details: Preemergence; for Crabgrass plant response rating: Rate 62 g/ha
Outline: as §1

[4] = system: wild oat; test: Test B pre/postemergence wild oat; format: in vivo, Avena fatua; details: Preemergence; for Wild oats plant response rating: Rate 62 g/ha
Outline: as §1

[5] = system: wheat; test: Test B pre/postemergence wheat; format: in vivo, Triticum aestivum; details: Preemergence; for Wheat plant response rating: Rate 62 g/ha
Outline: as §1

[6] = system: cocklebur; test: Test B pre/postemergence cocklebur; format: in vivo, Xanthium strumarium; details: Preemergence; for Cocklebur plant response rating: Rate 62 g/ha
Outline: as §1

[7] = system: purple nutsedge; test: Test B pre/postemergence purple nutsedge; format: in vivo, Cyperus rotundus; details: Preemergence
Outline: as §1

[8] = system: pigweed; test: Test B pre/postemergence pigweed; format: in vivo, Amaranthus retroflexus; details: Preemergence; for Redroot pigweed plant response rating: Rate 62 g/ha
Outline: as §1

[9] = system: sugar beet; test: Test B pre/postemergence sugar beet; format: in vivo, Beta vulgaris; details: Preemergence; for Sugarbeets plant response rating: Rate 62 g/ha
Outline: as §1

[10] = system: morningglory; test: Test B pre/postemergence morningglory; format: in vivo, Ipomoea hederacea; details: Preemergence; for Morningglory plant response rating: Rate 62 g/ha
Outline: as §1

[11] = system: corn; test: Test B pre/postemergence corn; format: in vivo, Zea mays; details: Preemergence; for Corn plant response rating: Rate 62 g/ha
Outline: as §1

[12] = system: velvetleaf; test: Test B pre/postemergence velvetleaf; format: in vivo, Abutilon theophrasti; details: Preemergence; for Velvetleaf plant response rating: Rate 62 g/ha
Outline: as §1

[13] = system: giant foxtail; test: Test B pre/postemergence giant foxtail; format: in vivo, Setaria faberii; details: Preemergence; for Giant foxtail plant response rating: Rate 62 g/ha
Outline: as §1

[14] = system: bedstraw; test: Test B pre/postemergence bedstraw; format: in vivo, Galium aparine; details: Preemergence; for Bedstraw plant response rating: Rate 62 g/ha
Outline: as §1

[15] = system: blackgrass; test: Test B pre/postemergence blackgrass; format: in vivo, Alopecurus myosuroides; details: Preemergence; for Blackgrass plant response rating: Rate 62 g/ha
Outline: as §1

[16] = system: rape; test: Test B pre/postemergence rape; format: in vivo, Brassica napus; details: Preemergence; for Rape plant response rating: Rate 62 g/ha
Outline: as §1

[17] = scale of 0 to 10 where 0 is no effect and 10 is complete control
[18] = Rate 125 g/ha, scale of 0 to 10 where 0 is no effect and 10 is complete control
[19] = Rate 250 g/ha, scale 0 to 10 (0 no effect, 10 complete control)
[20] = Rate 500 g/ha, scale of 0 to 10 where 0 is no effect and 10 is complete control

CC(C)N(C(=O)n1oc(=O)n(CC(Cl)Cl)c1=O)c1ccc(F)cc1F [Compound 673]
7: Plant response rating, B. signalgrass [1, 19] | Plant response rating, Redroot pigweed [8, 18]
2: Plant response rating, Cocklebur [6, 20] | Plant response rating, Nutsedge [7, 19] | Plant response rating, Morningglory [10, 20] | Plant response rating, Corn [11, 18] | Plant response rating, Rape [16, 18] | Plant response rating, Rape [16, 19] | Plant response rating, Rape [16, 20]
0: Soybean plant response rating [2, 17] | Plant response rating, Soybean [2, 18] | Plant response rating, Soybean [2, 19] | Plant response rating, Soybean [2, 20] | Wheat plant response rating [5, 17] | Plant response rating, Wheat [5, 18] | Plant response rating, Wheat [5, 19] | Cocklebur plant response rating [6, 17] | Plant response rating, Cocklebur [6, 18] | Plant response rating, Cocklebur [6, 19] | Nutsedge plant response rating ([7]; Rate 62 g/ha, scale of 0 to 10 where 0 is no effect and 10 is complete control) | Plant response rating, Nutsedge [7, 18] | Sugarbeets plant response rating [9, 17] | Plant response rating, Sugarbeets [9, 18] | Morningglory plant response rating [10, 17] | Plant response rating, Morningglory [10, 18] | Plant response rating, Morningglory [10, 19] | Corn plant response rating [11, 17] | Velvetleaf plant response rating [12, 17]
3: Plant response rating, Sugarbeets [9, 19] | Plant response rating, Sugarbeets [9, 20] | Plant response rating, Velvetleaf [12, 18] | Plant response rating, Velvetleaf [12, 19] | Bedstraw plant response rating [14, 17] | Blackgrass plant response rating [15, 17]
5: Wild oats plant response rating [4, 17]
8: Plant response rating, B. signalgrass [1, 20] | Plant response rating, Crabgrass [3, 18] | Plant response rating, Wild oats [4, 20] | Plant response rating, Velvetleaf [12, 20] | Plant response rating, Blackgrass [15, 18]
10: Plant response rating, Crabgrass [3, 19] | Plant response rating, Crabgrass [3, 20] | Plant response rating, Redroot pigweed [8, 19] | Plant response rating, Redroot pigweed [8, 20] | Plant response rating, Giant foxtail [13, 18] | Plant response rating, Giant foxtail [13, 19] | Plant response rating, Giant foxtail [13, 20]
9: Plant response rating, Wild oats [4, 19] | Giant foxtail plant response rating [13, 17] | Plant response rating, Blackgrass [15, 19] | Plant response rating, Blackgrass [15, 20]
4: B. signalgrass plant response rating [1, 17] | Crabgrass plant response rating [3, 17] | Plant response rating, Corn [11, 19] | Plant response rating, Bedstraw [14, 19]
6: Plant response rating, B. signalgrass [1, 18] | Plant response rating, Nutsedge [7, 20] | Redroot pigweed plant response rating [8, 17] | Plant response rating, Corn [11, 20] | Plant response rating, Bedstraw [14, 20]
1: Rape plant response rating [16, 17]

CCn1ncc(Cn2c(=O)on(C(=O)N(c3ccc(F)cc3)C(C)C)c2=O)c1Cl [Compound 685]
7: Plant response rating, B. signalgrass [1, 18] | Plant response rating, Blackgrass [15, 18]
4: Plant response rating, Redroot pigweed [8, 18]
0: Soybean plant response rating [2, 17] | Plant response rating, Soybean [2, 18] | Wild oats plant response rating [4, 17] | Wheat plant response rating [5, 17] | Plant response rating, Wheat [5, 18] | Cocklebur plant response rating [6, 17] | Plant response rating, Cocklebur [6, 18] | Plant response rating, Cocklebur [6, 19] | Plant response rating, Nutsedge [7, 18] | Redroot pigweed plant response rating [8, 17] | Sugarbeets plant response rating [9, 17] | Plant response rating, Sugarbeets [9, 18] | Morningglory plant response rating [10, 17] | Plant response rating, Morningglory [10, 18] | Corn plant response rating [11, 17] | Plant response rating, Corn [11, 18] | Plant response rating, Corn [11, 19] | Velvetleaf plant response rating [12, 17] | Plant response rating, Velvetleaf [12, 18] | Plant response rating, Bedstraw [14, 18] | Plant response rating, Bedstraw [14, 19] | Plant response rating, Bedstraw [14, 20] | Rape plant response rating [16, 17] | Plant response rating, Rape [16, 18]
10: Plant response rating, Blackgrass [15, 19] | Plant response rating, Blackgrass [15, 20]
5: B. signalgrass plant response rating [1, 17] | Blackgrass plant response rating [15, 17]
9: Plant response rating, B. signalgrass [1, 19] | Plant response rating, B. signalgrass [1, 20] | Crabgrass plant response rating [3, 17] | Plant response rating, Crabgrass [3, 18] | Plant response rating, Crabgrass [3, 19] | Giant foxtail plant response rating [13, 17] | Plant response rating, Giant foxtail [13, 18]
3: Plant response rating, Wild oats [4, 18]

CC(C)N(C(=O)n1oc(=O)n(CCC(=O)N(C)C)c1=O)c1ccc(F)cc1F [Compound 687]
9: Plant response rating, B. signalgrass [1, 18] | Plant response rating, Wild oats [4, 18] | Plant response rating, Redroot pigweed [8, 18] | Plant response rating, Blackgrass [15, 18] | Plant response rating, Blackgrass [15, 19]
6: B. signalgrass plant response rating [1, 17] | Plant response rating, Wheat [5, 18] | Giant foxtail plant response rating [13, 17] | Plant response rating, Giant foxtail [13, 18]
8: Redroot pigweed plant response rating [8, 17] | Blackgrass plant response rating [15, 17]
3: Plant response rating, Morningglory [10, 18]
10: Plant response rating, B. signalgrass [1, 19] | Plant response rating, B. signalgrass [1, 20] | Plant response rating, Blackgrass [15, 20]
7: Wild oats plant response rating [4, 17]
4: Crabgrass plant response rating [3, 17] | Plant response rating, Crabgrass [3, 19] | Sugarbeets plant response rating [9, 17]
2: Morningglory plant response rating [10, 17] | Velvetleaf plant response rating [12, 17]
0: Soybean plant response rating [2, 17] | Plant response rating, Soybean [2, 18] | Wheat plant response rating [5, 17] | Cocklebur plant response rating [6, 17] | Plant response rating, Cocklebur [6, 18] | Plant response rating, Cocklebur [6, 19] | Plant response rating, Cocklebur [6, 20] | Plant response rating, Nutsedge [7, 18] | Corn plant response rating [11, 17] | Plant response rating, Corn [11, 18] | Plant response rating, Corn [11, 19] | Bedstraw plant response rating [14, 17] | Plant response rating, Bedstraw [14, 18] | Plant response rating, Bedstraw [14, 20] | Rape plant response rating [16, 17]
5: Plant response rating, Sugarbeets [9, 18] | Plant response rating, Velvetleaf [12, 18] | Plant response rating, Rape [16, 18]
